# Literature values in patent US8377904B2, “Composition and method for use in cartilage affecting conditions” (Hill's Pet Nutrition, Inc., priority 2004, dated 2013).
# Test system: pain of osteoarthritis
smiles,measurement,setting,value
"C[S+](CC[C@H](N)C(=O)[O-])C[C@H]1O[C@@H](n2cnc3c(N)ncnc32)[C@H](O)[C@@H]1O (some centres unmarked) [SAMe, S-adenosyl-L methionine]",Outcome compared with non-steroidal anti-inflammatory medication,meta analysis,not associated with statistically significant difference in outcomes
same,effective size in favor of SAMe compared to a placebo,one randomized clinical trial,0.20
